Data set [1] relates to HIV-1 replication in H9 cells. The experiment in a line: HIV-1 replication inhibition in acutely infected H9 lymphocytes (p24 antigen ELISA). Particulars: for EC50: Human immunodeficiency virus 1, H9, acutely infected H9 cells; for anti-HIV activity in H9 cells (in words): acutely infected H9 cells. Format: cell-based, HIV-1 (IIIB strain). Here is the method: (§1) HIV inhibition assay. The HIV inhibition was measured as described herein. Briefly, H9 cells, a T cell line, (3.5×10^6 cells/ml) were incubated in the presence or absence of HIV-1 (IIIB strain, 0.01-0.1 TCID50 /cell) for 1 hour at 37° C. Cells were washed thoroughly and resuspended at a final concentration of 2×10^5 cells/ml in the presence or absence of compound. After incubation for 3-4 days at 37° C., the cell density of uninfected cultures was determined by cell count to assess toxicity of the drug. An aliquot of each cell-free supernatant was assayed by p24 antigen ELISA to quantitate the amount of HIV-1 present in the infected cultures. Test compounds were considered to be active at a particular concentration if p24 antigen levels were less than 70% of infected, untreated controls and were nontoxic to uninfected H9 cells.
(§2) HIV Growth Inhibition Assay: The T cell line, H9, and the promonocytic cell line, U937, were maintained separately in continuous culture with complete medium (RPMI 1640 and […] fetal calf serum (FCS) at 5% CO2 and 37° C. Cell lines were used in experiments only when in log phase of growth; whereas, uninfected peripheral blood mononuclear cells (PBMCs) were first stimulated with PHA (1 μg/ml) for 3 days. All cell targets were incubated with HIV-1 (IIIB isolate, TCID50 10 ^4 IU/mi, at a multiplicity of infection of 0.1-0.01 IU/cell) for 1 hour at 37° C. and 5% CO2. The cell lines and PBMCs were washed thoroughly to remove unabsorbed virions and resuspended at 4×10^5 cells/ml in complete medium or complete medium with 10% v/v interleukin […] IL-2, respectively. Aliquots ( ml) were placed in wells of 24-well culture plates containing an equal volume of test compound (diluted in the appropriate culture medium). After incubation for 4 days at 37° C., cell density of uninfected cultures was determined by counting cells in a Coulter counter to assess toxicity of the test compound. A p24 antigen ELISA assay was used to determine the level of virus released in the medium of the HIV-infected cultures. The p24 antigen assay uses a HIV-1 anti-p24 specific monoclonal antibody as the capture antibody coated-on 96-well plates. Following a sample incubation period, rabbit serum containing antibodies for HIV-1 p24 is used to tag any p24 "captured" onto the microtiter well surface. Peroxidase conjugated goat anti-rabbit serum is then used to tag HIV-1 p24 specific rabbit antibodies which have complexed with captured p24. […] The cut-off for the p24 ELISA assay is 12. pg/ml. P24 in the culture medium was quantitated against a standard curve containing known amounts of p24. The effective (EC50) and inhibitory (IC50) concentrations (for anti-HIV activity and cytotoxicity, respectively) were determined graphically. Both the EC50 and IC50 values were calculated by plotting drug concentration versus percent inhibition, and then identifying a 50% inhibition value from the graph.

Data set [2] relates to uninfected H9 cells. The experiment in a line: Toxicity to uninfected H9 cells (cell growth). Format: cell-based. To be noted: for IC50: Homo sapiens. Here is the method:
as §1, §2

For data set [3], the system named is HIV-1 replication in H9 cells. In words: Combination study of suksdorfin with AZT, ddI and ddC: HIV-1 replication in acutely infected H9 cells. Format: cell-based, HIV-1 (IIIB). To be noted: for EC50 / IC50: Human immunodeficiency virus 1, H9; for EC50 / IC50 / Therapeutic Index: combinations with 4 μg/ml suksdorfin; for EC50: read-out: EC50; for IC50: concentration which inhibits viral replication by 50%, read-out: IC50 (μM)^b. Here is the method:
as §2, with “surface.” for “surface. Peroxidase conjugated goat anti-rabbit serum is then used to tag HIV-1 p24 specific rabbit antibodies which have complexed with captured p24.”, “The effective (EC50) and inhibitory (IC50) concentrations (for anti-HIV activity and cytotoxicity, respectively) were determined graphically.” left out
Combination Study: The experimental design is identical to the growth inhibition assay except that various concentrations of AZT, ddI or ddC were also added to cultures of acutely HIV-1 infected H9 cells that either have or have no received different concentrations of suksdorfin. The concentrations of AZT, ddI and ddC were 5 ten-fold dilutions starting at 1 μg/ml. [drawing 104] [drawing 105]

The test system of data set [4] is uninfected H9 cells. The experiment in a line: Combination study of suksdorfin with AZT, ddI and ddC: toxicity to uninfected H9 cells. To be noted: Homo sapiens, H9, combinations with 4 μg/ml suksdorfin. It counts as cell-based. Here is the method:
Pharm. Asso. […] Aliquots ( ml) were placed in wells of 24-well culture plates containing an equal volume of test compound (diluted in the appropriate culture medium). After incubation for 4 days at 37° C., cell density of uninfected cultures was determined by counting cells in a Coulter counter to assess toxicity of the test compound. A p24 antigen ELISA assay was used to determine the level of virus released in the medium of the HIV-infected cultures. The p24 antigen assay uses a HIV-1 anti-p24 specific monoclonal antibody as the capture antibody coated-on 96-well plates. Following a sample incubation period, rabbit serum containing antibodies for HIV-1 p24 is used to tag any p24 "captured" onto the microtiter well surface. […] The cut-off for the p24 ELISA assay is 12. pg/ml. P24 in the culture medium was quantitated against a standard curve containing known amounts of p24. The effective (EC50) and inhibitory (IC50) concentrations (for anti-HIV activity and cytotoxicity, respectively) were determined graphically.
Combination Study: The experimental design is identical to the growth inhibition assay except that various concentrations of AZT, ddI or ddC were also added to cultures of acutely HIV-1 infected H9 cells that either have or have no received different concentrations of suksdorfin.

The mark [5] stands for this setting: concentration which inhibits viral replication by 50%, Inactive = No suppression of HIV-1 replication in H9 cells.
The mark [6] stands for this setting: Human immunodeficiency virus 1, H9, read-out: IC50 (μM)^b.
[7] abbreviates: IC50 for cell growth inhibition divided by EC50 for HIV inhibition, H9.
The mark [8] stands for this setting: H9, concentration which inhibits uninfected cell growth by 50%.
[9] abbreviates: H9, read-out: IC50 (μM)^a, Table 14, concentration which inhibits uninfected cell growth by 50%.
Setting [10] is: concentration which inhibits viral replication by 50%, Inactive = No suppression of HIV-1 replication in H9 cells, read-out: EC50.
Where [11] appears, read: Human immunodeficiency virus 1, Table 14, concentration which inhibits viral replication by 50%, Inactive = No suppression of HIV-1 replication in H9 cells, read-out: IC50 (μM)^b.
The mark [12] stands for this setting: H9, Table 14, concentration which inhibits uninfected cell growth by 50%, read-out: IC50 (μM)^a.
[13] abbreviates: H9, concentration which inhibits uninfected cell growth by 50%, read-out: IC50.
The mark [14] stands for this setting: Table 16, concentration which inhibits uninfected cell growth by 50%, read-out: IC50 (μM)^a.

As to `CC(C)=CCOc1c2occc2cc2ccc(=O)oc12` [Imperatorin, imperatorin, reference compound], the EC50 in data set [1] (setting [5]) is 11.1 µM. Also, the half-maximal inhibitory concentration (IC50) was 11.1 µM in data set [1] (setting [6]), more than 74.1 µM in data set [2] (setting [8]) and more than 74.1 µM in data set [2] (setting [9]). For the same molecule, the “Therapeutic Index” value in data set [1] (setting [7]) and in data set [1] (Table 14) was more than 6.7 in each case.

Turning to `CC(C)=CCOc1c2ccoc2cc2oc(=O)ccc12` [Isoimperatorin, isoimperatorin, reference compound], the EC50 in data set [1] (setting [10]) came to 40.7 µM. Moreover, the IC50 is 40.7 µM in data set [1] (setting [11]), more than 185 µM in data set [2] (setting [12]) and more than 185 µM in data set [2] (setting [13]). The “Therapeutic Index” value in data set [1] (setting [7]) and in data set [1] (Table 14) was more than 4.6 in each case.

`CC1(C)O[C@H]1COc1c2ccoc2cc2oc(=O)ccc12` [Oxypeucedanin, oxypeucedanin, reference compound]: the EC50 in data set [1] (setting [10]) amounted to 31.5 µM. The IC50 was 31.5 µM in data set [1] (setting [11]), more than 69.9 µM in data set [2] (setting [12]) and more than 69.9 µM in data set [2] (setting [13]). For the same molecule, the “Therapeutic Index” value in data set [1] (setting [7]) and in data set [1] (Table 14) was more than 2.2 throughout.

Turning to `C/C=C(/C)C(=O)O[C@@H]1c2c(ccc3ccc(=O)oc23)OC(C)(C)[C@@H]1OC(C)=O` [Pteryxin, pteryxin, reference compound], the EC50 in data set [1] (setting [5]) was found to be 4.6 µM. Besides, the half-maximal inhibitory concentration (IC50) in data set [1] (setting [6]) is 4.6 µM; in data set [2] (setting [8]), more than 10.4 µM; in data set [2] (setting [9]) it was more than 10.4 µM. The “Therapeutic Index” value in data set [1] (setting [7]) and in data set [1] (Table 14) was more than 3.7 each time. In addition, the entries for the “anti-HIV activity in H9 cells (in words)” value in data set [1] and in data set [1] (listed as pteryxn) were “slightly reduced anti-HIV-l activity” and “slightly reduced anti-HIV-1 activity”, respectively. For the same molecule, in data set [2] (H9 cells), the “increase of toxicity on replacing 4'-isovaleryl by angeloyl (versus suksdorfin)” value is reported as 5 fold.

Consider `Nc1ccn([C@H]2CC[C@@H](CO)O2)c(=O)n1` [ddC, dideoxycytidine], for which the EC50 in data set [3] (Table 5) is 0.004 µg/mL. Besides, the IC50 in data set [3] (Table 16) is 0.004 µg/mL; in data set [4] (Table 5, read-out: IC50), more than 1 µg/mL; in data set [4] (setting [14]), more than 1 µg/mL. Besides, the “Therapeutic Index” value in data set [3] (Table 5) and in data set [3] (Table 16) was more than 250 in each case. Also, in data set [3] (with 4 μg/ml suksdorfin, H9), the “decrease of EC50 in presence of suksdorfin” value was found to be 40 fold.

Turning to `O=c1[nH]cnc2c1ncn2[C@H]1CC[C@@H](CO)O1` [ddI], the EC50 in data set [3] (Table 5) was 0.4 µg/mL. In addition, the IC50 was 0.4 µg/mL in data set [3] (Table 16); more than 1 µg/mL in data set [4] (Table 5, read-out: IC50); more than 1 µg/mL in data set [4] (setting [14]). The figures for the “Therapeutic Index” value in data set [3] (Table 5), in data set [3] (Table 16) and in data set [1] (setting [7]) were more than 2.5, more than 2.5 and more than 400, respectively. The “decrease of EC50 in presence of suksdorfin” value in data set [3] (with 4 μg/ml suksdorfin, H9) came out at 4000 fold. The “reduction of amount of nucleoside needed in presence of suksdorfin” value in data set [3] (with 4 μg/ml suksdorfin, H9) came out at 4000 fold.

These data come from patent US6319929A, “Suksdorfin analogs, compositions thereof, and methods for making and using thereof” (priority 1998, dated 2001).
